Here are results for five compounds from patent US10894817B2, “Fatty acid modified urocortin-2 analogs for the treatment of diabetes and chronic kidney disease” (priority 2016, dated 2021).

As usually defined, the EC50 is the concentration that produces a half-maximal response.

This assay has as its target T1, human CRHR2b (Homo sapiens, UniProt Q13324).
T1 construct: expressed in transfected cells; host or cells: Chinese Hamster Ovary (CHO) cells, transient transfection
T1 sequence (Q13324 1-438 isoform Q13324-2): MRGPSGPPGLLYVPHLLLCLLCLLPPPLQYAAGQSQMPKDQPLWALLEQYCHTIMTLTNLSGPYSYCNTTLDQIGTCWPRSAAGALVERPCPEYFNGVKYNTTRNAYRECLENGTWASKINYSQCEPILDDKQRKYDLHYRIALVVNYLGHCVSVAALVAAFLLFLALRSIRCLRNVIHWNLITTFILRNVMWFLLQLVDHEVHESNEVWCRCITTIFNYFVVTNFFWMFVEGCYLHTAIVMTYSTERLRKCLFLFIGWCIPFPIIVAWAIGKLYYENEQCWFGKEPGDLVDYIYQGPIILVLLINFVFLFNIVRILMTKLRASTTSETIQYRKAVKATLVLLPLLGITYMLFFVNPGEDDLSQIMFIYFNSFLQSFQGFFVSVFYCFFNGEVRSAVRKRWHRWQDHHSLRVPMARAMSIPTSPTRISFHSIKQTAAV
The assay can be described thus: human CRHR2b cell-based cAMP assay. In short, it runs like this:
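ED50 values are means ± SEM over several runs, curve-fitted from cAMP in pmol, calibrated against unlabeled-cAMP standards. Detection was HTRF competition, ratio 665/620 nm, after 30 min agonist exposure at 37 °C.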

[1] abbreviates: cAMP assay, Table 26, compounds of Example 9, read-out: hCRHR2b Average EC50.

Each structure is given as a SMILES string. Like-named read-outs stand apart in the source and are kept apart here. Starred links: 1 amine or outer side, 2 acyl side, 3 side chain; linkers in the order of their positions; H or OH if unused. Non-standard residues stand in square brackets, D forms with d. Residues, ends and D or L forms follow the SMILES beside them. Groups on a side chain read outwards from the residue. *: point of attachment. C20 diacid = O=C(O)CCCCCCCCCCCCCCCCCCC(=O)*; C18 diacid = O=C(O)CCCCCCCCCCCCCCCCC(=O)*; γGlu = O=C(O)[C@H](CCC(=O)[*:2])N[*:1]; NMeI = CC[C@H](C)[C@H](NC)C(=O)O; AEEA = NCCOCCOCC(=O)O

Regarding `CC[C@H](C)[C@H](N)C(=O)N[C@H](C(=O)N[C@@H](CC(C)C)C(=O)N[C@@H](CO)C(=O)N[C@@H](CC(C)C)C(=O)N[C@@H](CC(=O)O)C(=O)N[C@H](C(=O)N1CCC[C@H]1C(=O)N[C@H](C(=O)NCC(=O)N[C@@H](CC(C)C)C(=O)N[C@@H](CC(C)C)C(=O)N[C@@H](CCC(N)=O)C(=O)N[C@H](C(=O)N[C@@H](CC(C)C)C(=O)N[C@@H](CC(C)C)C(=O)N[C@@H](CCCCNC(=O)COCCOCCNC(=O)COCCOCCNC(=O)CC[C@H](NC(=O)CC[C@H](NC(=O)CCCCCCCCCCCCCCCCC(=O)O)C(=O)O)C(=O)O)C(=O)N[C@@H](CCC(N)=O)C(=O)N[C@@H](CCC(=O)O)C(=O)N[C@@H](CCCCN)C(=O)N[C@@H](CCC(N)=O)C(=O)N[C@@H](CCC(=O)O)C(=O)N[C@@H](CCCCN)C(=O)N[C@@H](CCC(=O)O)C(=O)N[C@@H](CCCCN)C(=O)N[C@@H](CCC(N)=O)C(=O)N[C@@H](CCC(N)=O)C(=O)N[C@@H](C)C(=O)N[C@H](C(=O)N[C@@H](CCC(=O)O)C(=O)N[C@@H](CC(N)=O)C(=O)N[C@@H](C)C(=O)N[C@@H](CCC(N)=O)C(=O)N[C@H](C(=O)N[C@@H](CC(C)C)C(=O)N[C@@H](C)C(=O)N[C@@H](CCC(N)=O)C(=O)N[C@H](C(N)=O)C(C)C)[C@@H](C)CC)[C@@H](C)O)[C@@H](C)CC)[C@@H](C)CC)C(C)C)C(C)C` [Compound 53] (H-IVLSLDVPIGLLQILLK([AEEA-AEEA-γGlu-γGlu-C18 diacid])QEKQEKEKQQATENAQILAQV-NH2), it took 4.01 nM to reach a half-maximal effect (EC50).
On to `CC[C@H](C)[C@H](N)C(=O)N[C@H](C(=O)N[C@@H](CC(C)C)C(=O)N[C@@H](CO)C(=O)N[C@@H](CC(C)C)C(=O)N[C@@H](CC(=O)O)C(=O)N[C@H](C(=O)N1CCC[C@H]1C(=O)N[C@H](C(=O)NCC(=O)N[C@@H](CC(C)C)C(=O)N[C@@H](CC(C)C)C(=O)N[C@@H](CCC(N)=O)C(=O)N[C@H](C(=O)N[C@@H](CC(C)C)C(=O)N[C@@H](CC(C)C)C(=O)N[C@@H](CCC(=O)O)C(=O)N[C@@H](CCC(N)=O)C(=O)N[C@@H](CCC(=O)O)C(=O)N[C@@H](CCCCN)C(=O)N[C@@H](CCC(N)=O)C(=O)N[C@@H](CCC(=O)O)C(=O)N[C@@H](CCCCN)C(=O)N[C@@H](CCC(=O)O)C(=O)N[C@@H](CCCCN)C(=O)N[C@@H](CCCCNC(=O)COCCOCCNC(=O)COCCOCCNC(=O)CC[C@H](NC(=O)CC[C@H](NC(=O)CCCCCCCCCCCCCCCCC(=O)O)C(=O)O)C(=O)O)C(=O)N[C@@H](CCC(N)=O)C(=O)N[C@@H](C)C(=O)N[C@H](C(=O)N[C@@H](CCC(=O)O)C(=O)N[C@@H](CC(N)=O)C(=O)N[C@@H](C)C(=O)N[C@@H](CCC(N)=O)C(=O)N[C@H](C(=O)N[C@@H](CC(C)C)C(=O)N[C@@H](C)C(=O)N[C@@H](CCC(N)=O)C(=O)N[C@H](C(N)=O)C(C)C)[C@@H](C)CC)[C@@H](C)O)[C@@H](C)CC)[C@@H](C)CC)C(C)C)C(C)C` [Compound 54] (H-IVLSLDVPIGLLQILLEQEKQEKEKK([AEEA-AEEA-γGlu-γGlu-C18 diacid])QATENAQILAQV-NH2), for which, under setting [1], the EC50 is 4.26 nM.
For the compound `CC[C@H](C)[C@H](N)C(=O)N[C@H](C(=O)N[C@@H](CC(C)C)C(=O)N[C@@H](CO)C(=O)N[C@@H](CC(C)C)C(=O)N[C@@H](CC(=O)O)C(=O)N[C@H](C(=O)N1CCC[C@H]1C(=O)N[C@H](C(=O)NCC(=O)N[C@@H](CC(C)C)C(=O)N[C@@H](CC(C)C)C(=O)N[C@@H](CCC(N)=O)C(=O)N[C@H](C(=O)N[C@@H](CC(C)C)C(=O)N[C@@H](CC(C)C)C(=O)N[C@@H](CCC(=O)O)C(=O)N[C@@H](CCC(N)=O)C(=O)N[C@@H](CCC(=O)O)C(=O)N[C@@H](CCCCN)C(=O)N[C@@H](CCC(N)=O)C(=O)N[C@@H](CCC(=O)O)C(=O)N[C@@H](CCCCN)C(=O)N[C@@H](CCC(=O)O)C(=O)N[C@@H](CCCCN)C(=O)N[C@@H](CCC(N)=O)C(=O)N[C@@H](CCC(N)=O)C(=O)N[C@@H](C)C(=O)N[C@@H](CCCCNC(=O)COCCOCCNC(=O)COCCOCCNC(=O)CC[C@H](NC(=O)CC[C@H](NC(=O)CCCCCCCCCCCCCCCCC(=O)O)C(=O)O)C(=O)O)C(=O)N[C@@H](CCC(=O)O)C(=O)N[C@@H](CC(N)=O)C(=O)N[C@@H](C)C(=O)N[C@@H](CCC(N)=O)C(=O)N[C@H](C(=O)N[C@@H](CC(C)C)C(=O)N[C@@H](C)C(=O)N[C@@H](CCC(N)=O)C(=O)N[C@H](C(N)=O)C(C)C)[C@@H](C)CC)[C@@H](C)CC)[C@@H](C)CC)C(C)C)C(C)C` [Compound 55] (H-IVLSLDVPIGLLQILLEQEKQEKEKQQAK([AEEA-AEEA-γGlu-γGlu-C18 diacid])ENAQILAQV-NH2), the EC50 under setting [1] was 1.51 nM.
On the same count and under the same terms, next, `CC[C@H](C)[C@H](NC)C(=O)N[C@H](C(=O)N[C@@H](CC(C)C)C(=O)N[C@@H](CO)C(=O)N[C@@H](CC(C)C)C(=O)N[C@@H](CC(=O)O)C(=O)N[C@H](C(=O)N1CCC[C@H]1C(=O)N[C@H](C(=O)NCC(=O)N[C@@H](CC(C)C)C(=O)N[C@@H](CC(C)C)C(=O)N[C@@H](CCC(N)=O)C(=O)N[C@H](C(=O)N[C@@H](CC(C)C)C(=O)N[C@@H](CC(C)C)C(=O)N[C@@H](CCC(=O)O)C(=O)N[C@@H](CCC(N)=O)C(=O)N[C@@H](CCC(=O)O)C(=O)N[C@@H](CCCCN)C(=O)N[C@@H](CCC(N)=O)C(=O)N[C@@H](CCC(=O)O)C(=O)N[C@@H](CCCCN)C(=O)N[C@@H](CCC(=O)O)C(=O)N[C@@H](CCCCN)C(=O)N[C@@H](CCC(N)=O)C(=O)N[C@@H](CCC(N)=O)C(=O)N[C@@H](C)C(=O)N[C@@H](CCCCNC(=O)COCCOCCNC(=O)CC[C@H](NC(=O)CC[C@H](NC(=O)CCCCCCCCCCCCCCCCCCC(=O)O)C(=O)O)C(=O)O)C(=O)N[C@@H](CCC(=O)O)C(=O)N[C@@H](CC(N)=O)C(=O)N[C@@H](C)C(=O)N[C@@H](CCC(=O)O)C(=O)N[C@H](C(=O)N[C@@H](CC(C)C)C(=O)N[C@@H](C)C(=O)N[C@@H](CCC(N)=O)C(=O)N[C@H](C(N)=O)C(C)C)[C@@H](C)CC)[C@@H](C)CC)[C@@H](C)CC)C(C)C)C(C)C` [Compound 57] (H-[NMeI]VLSLDVPIGLLQILLEQEKQEKEKQQAK([AEEA-γGlu-γGlu-C20 diacid])ENAEILAQV-NH2): 3.65 nM; `CC[C@H](C)[C@H](NC)C(=O)N[C@H](C(=O)N[C@@H](CC(C)C)C(=O)N[C@@H](CO)C(=O)N[C@@H](CC(C)C)C(=O)N[C@@H](CC(=O)O)C(=O)N[C@H](C(=O)N1CCC[C@H]1C(=O)N[C@H](C(=O)NCC(=O)N[C@@H](CC(C)C)C(=O)N[C@@H](CC(C)C)C(=O)N[C@@H](CCC(N)=O)C(=O)N[C@H](C(=O)N[C@@H](CC(C)C)C(=O)N[C@@H](CC(C)C)C(=O)N[C@@H](CCC(=O)O)C(=O)N[C@@H](CCC(N)=O)C(=O)N[C@@H](CCC(=O)O)C(=O)N[C@@H](CCCCN)C(=O)N[C@@H](CCC(N)=O)C(=O)N[C@@H](CCC(=O)O)C(=O)N[C@@H](CCCCN)C(=O)N[C@@H](CCC(=O)O)C(=O)N[C@@H](CCCCN)C(=O)N[C@@H](CCC(N)=O)C(=O)N[C@@H](CCC(N)=O)C(=O)N[C@@H](C)C(=O)N[C@@H](CCCCNC(=O)CC[C@H](NC(=O)CC[C@H](NC(=O)CCCCCCCCCCCCCCCCCCC(=O)O)C(=O)O)C(=O)O)C(=O)N[C@@H](CCC(=O)O)C(=O)N[C@@H](CC(N)=O)C(=O)N[C@@H](C)C(=O)N[C@@H](CCC(=O)O)C(=O)N[C@H](C(=O)N[C@@H](CC(C)C)C(=O)N[C@@H](C)C(=O)N[C@@H](CCC(N)=O)C(=O)N[C@H](C(N)=O)C(C)C)[C@@H](C)CC)[C@@H](C)CC)[C@@H](C)CC)C(C)C)C(C)C` [Compound 58] (H-[NMeI]VLSLDVPIGLLQILLEQEKQEKEKQQAK([γGlu-γGlu-C20 diacid])ENAEILAQV-NH2): 3.79 nM.
